≈ marks a conversion by molar mass, not a printed value. Blank lines part the entries; values can stand above or below the molecule they belong to.
How the values were obtained:
Streptococcus mutans [1] = experiment: Antibacterial activity against Streptococcus mutans ATCC 25175 assessed as effect on planktonic growth at 5.5 ug/ml after 20 hrs relative to control; format: functional
[2] = test system: Staphylococcus epidermidis; experiment: Antibacterial activity against Staphylococcus epidermidis ATCC 35547 assessed as effect on planktonic growth at 21.9 ug/ml after 20 hrs relative to control; format: functional
Pseudomonas aeruginosa [3] = experiment: Antibacterial activity against Pseudomonas aeruginosa ATCC 27853 assessed as effect on planktonic growth at 43.8 ug/ml after 20 hrs relative to control; format: functional
Streptococcus mutans [4] = experiment: Antibacterial activity against Streptococcus mutans ATCC 25175 assessed as effect on planktonic growth at 0.34 ug/ml after 20 hrs relative to control; format: functional
[5] = test system: Staphylococcus epidermidis; experiment: Antibacterial activity against Staphylococcus epidermidis ATCC 35547 assessed as effect on planktonic growth at 10.9 ug/ml after 20 hrs relative to control; format: functional
[6] = test system: Staphylococcus epidermidis; experiment: Antibacterial activity against Staphylococcus epidermidis ATCC 35547 assessed as effect on planktonic growth at 1.37 ug/ml after 20 hrs relative to control; format: functional
Streptococcus mutans [7] = experiment: Antibacterial activity against Streptococcus mutans ATCC 25175 assessed as effect on planktonic growth at 43.8 ug/ml after 20 hrs relative to control; format: functional
[8] = test system: Staphylococcus epidermidis; experiment: Antibacterial activity against Staphylococcus epidermidis ATCC 35547 assessed as effect on planktonic growth at 0.17 ug/ml after 20 hrs relative to control; format: functional
Pseudomonas aeruginosa [9] = experiment: Antibacterial activity against Pseudomonas aeruginosa ATCC 27853 assessed as effect on planktonic growth at 1.37 ug/ml after 20 hrs relative to control; format: functional
Staphylococcus aureus [10] = experiment: Antibacterial activity against Staphylococcus aureus ATCC 25923 assessed as effect on planktonic growth at 0.34 ug/ml after 20 hrs relative to control; format: functional
Streptococcus mutans [11] = experiment: Antibacterial activity against Streptococcus mutans ATCC 25175 assessed as effect on planktonic growth at 10.9 ug/ml after 20 hrs relative to control; format: functional
Staphylococcus aureus [12] = experiment: Antibacterial activity against Staphylococcus aureus ATCC 25923 assessed as effect on planktonic growth at 43.8 ug/ml after 20 hrs relative to control; format: functional
Pseudomonas aeruginosa [13] = experiment: Antibacterial activity against Pseudomonas aeruginosa ATCC 27853 assessed as effect on planktonic growth at 0.17 ug/ml after 20 hrs relative to control; format: functional
[14] = test system: Staphylococcus epidermidis; experiment: Antibacterial activity against Staphylococcus epidermidis ATCC 35547 assessed as effect on planktonic growth at 0.34 ug/ml after 20 hrs relative to control; format: functional
Staphylococcus aureus [15] = experiment: Antibacterial activity against Staphylococcus aureus ATCC 25923 assessed as effect on planktonic growth at 21.9 ug/ml after 20 hrs relative to control; format: functional
Staphylococcus aureus [16] = experiment: Antibacterial activity against Staphylococcus aureus ATCC 25923 assessed as effect on planktonic growth at 2.73 ug/ml after 20 hrs relative to control; format: functional
Staphylococcus aureus [17] = experiment: Antibacterial activity against Staphylococcus aureus ATCC 25923 assessed as effect on planktonic growth at 5.5 ug/ml after 20 hrs relative to control; format: functional
Staphylococcus aureus [18] = experiment: Antibacterial activity against Staphylococcus aureus ATCC 25923 assessed as inhibition of biofilm formation after 20 hrs by crystal-violet staining method; format: functional, organism-based; details: ATCC 25923, 20 h
Pseudomonas aeruginosa [19] = experiment: Antibacterial activity against Pseudomonas aeruginosa ATCC 27853 assessed as inhibition of biofilm formation after 20 hrs by crystal-violet staining method; format: functional, organism-based
Pseudomonas aeruginosa [20] = experiment: Antibacterial activity against Pseudomonas aeruginosa ATCC 27853 assessed as effect on planktonic growth at 0.68 ug/ml after 20 hrs relative to control; format: functional
Staphylococcus aureus [21] = experiment: Antibacterial activity against Staphylococcus aureus ATCC 25923 assessed as effect on planktonic growth at 0.17 ug/ml after 20 hrs relative to control; format: functional
Pseudomonas aeruginosa [22] = experiment: Antibacterial activity against Pseudomonas aeruginosa ATCC 27853 assessed as effect on planktonic growth at 21.9 ug/ml after 20 hrs relative to control; format: functional
Pseudomonas aeruginosa [23] = experiment: Antibacterial activity against Pseudomonas aeruginosa ATCC 27853 assessed as effect on planktonic growth at 87.5 ug/ml after 20 hrs relative to control; format: functional
Pseudomonas aeruginosa [24] = experiment: Antibacterial activity against Pseudomonas aeruginosa ATCC 27853 assessed as effect on planktonic growth at 2.73 ug/ml after 20 hrs relative to control; format: functional
Staphylococcus aureus [25] = experiment: Antibacterial activity against Staphylococcus aureus ATCC 25923 assessed as effect on planktonic growth at 87.5 ug/ml after 20 hrs relative to control; format: functional
Pseudomonas aeruginosa [26] = experiment: Antibacterial activity against Pseudomonas aeruginosa ATCC 27853 assessed as effect on planktonic growth at 10.9 ug/ml after 20 hrs relative to control; format: functional
[27] = test system: Staphylococcus epidermidis; experiment: Antibacterial activity against Staphylococcus epidermidis ATCC 35547 assessed as effect on planktonic growth at 87.5 ug/ml after 20 hrs relative to control; format: functional
[28] = test system: Staphylococcus epidermidis; experiment: Antibacterial activity against Staphylococcus epidermidis ATCC 35547 assessed as inhibition of biofilm formation after 20 hrs by crystal-violet staining method; format: functional, organism-based; details: for IC50: ATCC 35547, 20 h
Pseudomonas aeruginosa [29] = experiment: Antibacterial activity against Pseudomonas aeruginosa ATCC 27853 assessed as effect on planktonic growth at 5.5 ug/ml after 20 hrs relative to control; format: functional
[30] = test system: Staphylococcus epidermidis; experiment: Antibacterial activity against Staphylococcus epidermidis ATCC 35547 assessed as effect on planktonic growth at 43.8 ug/ml after 20 hrs relative to control; format: functional
Pseudomonas aeruginosa [31] = experiment: Antibacterial activity against Pseudomonas aeruginosa ATCC 27853 assessed as effect on planktonic growth at 0.34 ug/ml after 20 hrs relative to control; format: functional
[32] = test system: Staphylococcus epidermidis; experiment: Antibacterial activity against Staphylococcus epidermidis ATCC 35547 assessed as effect on planktonic growth at 2.73 ug/ml after 20 hrs relative to control; format: functional
Streptococcus mutans [33] = experiment: Antibacterial activity against Streptococcus mutans ATCC 25175 assessed as effect on planktonic growth at 21.9 ug/ml after 20 hrs relative to control; format: functional
Streptococcus mutans [34] = experiment: Antibacterial activity against Streptococcus mutans ATCC 25175 assessed as inhibition of biofilm formation at 44 ug/ml after 20 hrs by crystal-violet staining method relative to control; format: functional; details: ATCC 25175, 20 h
Streptococcus mutans [35] = experiment: Antibacterial activity against Streptococcus mutans ATCC 25175 assessed as effect on planktonic growth at 1.37 ug/ml after 20 hrs relative to control; format: functional
[36] = test system: Staphylococcus epidermidis; experiment: Antibacterial activity against Staphylococcus epidermidis ATCC 35547 assessed as effect on planktonic growth at 0.68 ug/ml after 20 hrs relative to control; format: functional
Staphylococcus aureus [37] = experiment: Antibacterial activity against Staphylococcus aureus ATCC 25923 assessed as effect on planktonic growth at 1.37 ug/ml after 20 hrs relative to control; format: functional
Streptococcus mutans [38] = experiment: Antibacterial activity against Streptococcus mutans ATCC 25175 assessed as effect on planktonic growth at 0.68 ug/ml after 20 hrs relative to control; format: functional
Streptococcus mutans [39] = experiment: Antibacterial activity against Streptococcus mutans ATCC 25175 assessed as effect on planktonic growth at 87.5 ug/ml after 20 hrs relative to control; format: functional
Staphylococcus aureus [40] = experiment: Antibacterial activity against Staphylococcus aureus ATCC 25923 assessed as effect on planktonic growth at 0.68 ug/ml after 20 hrs relative to control; format: functional
Staphylococcus aureus [41] = experiment: Antibacterial activity against Staphylococcus aureus ATCC 25923 assessed as effect on planktonic growth at 10.9 ug/ml after 20 hrs relative to control; format: functional
Streptococcus mutans [42] = experiment: Antibacterial activity against Streptococcus mutans ATCC 25175 assessed as inhibition of biofilm formation after 20 hrs by crystal-violet staining method; format: functional; details: ATCC 25175, 20 h
Streptococcus mutans [43] = experiment: Antibacterial activity against Streptococcus mutans ATCC 25175 assessed as effect on planktonic growth at 0.17 ug/ml after 20 hrs relative to control; format: functional
[44] = test system: Staphylococcus epidermidis; experiment: Antibacterial activity against Staphylococcus epidermidis ATCC 35547 assessed as effect on planktonic growth at 5.5 ug/ml after 20 hrs relative to control; format: functional
Streptococcus mutans [45] = experiment: Antibacterial activity against Streptococcus mutans ATCC 25175 assessed as effect on planktonic growth at 2.73 ug/ml after 20 hrs relative to control; format: functional
Pseudomonas aeruginosa [46] = experiment: Induction of biofilm formation in Pseudomonas aeruginosa ATCC 27853 at 87.5 ug/ml after 20 hrs by crystal-violet staining method relative to control; format: organism-based

IC50 (Staphylococcus aureus [18]): 95.1 µM
IC50 (Pseudomonas aeruginosa [19]; ATCC 27853, 20 h): 25.2 µg/mL (≈ 52.5 µM)
IC50 [28]: 12.2 µg/mL (≈ 25.4 µM)
IC50 (Streptococcus mutans [42]): 58.9 µM
Structure (SMILES): COc1ccccc1C1=C(Br)C(=O)N(CC(C)C)/C1=C/c1ccc(C(F)(F)F)cc1
Activity (Streptococcus mutans [1]): -15.8%
Activity [2]: 88.5%
Activity (Pseudomonas aeruginosa [3]): 34.8%
Activity (Streptococcus mutans [4]): -5.4%
Activity [5]: 36.6%
Activity [6]: 1.1%
Activity (Streptococcus mutans [7]): -55.3%
Activity [8]: -16.7%
Activity (Pseudomonas aeruginosa [9]): -10.4%
Activity (Staphylococcus aureus [10]): -1.6%
Activity (Streptococcus mutans [11]): -19.3%
Activity (Staphylococcus aureus [12]): 59.8%
Activity (Pseudomonas aeruginosa [13]): -2.3%
Activity [14]: -2.2%
Activity (Staphylococcus aureus [15]): 4.9%
Activity (Staphylococcus aureus [16]): -21.7%
Activity (Staphylococcus aureus [17]): -18.5%
inhibition (Pseudomonas aeruginosa [19]): Dose-dependent effect
Activity (Pseudomonas aeruginosa [20]): -4%
Activity (Staphylococcus aureus [21]): 0%
Activity (Pseudomonas aeruginosa [22]): 9.1%
Activity (Pseudomonas aeruginosa [23]): 30.6%
Activity (Pseudomonas aeruginosa [24]): -13.1%
Activity (Staphylococcus aureus [25]): 91%
Activity (Pseudomonas aeruginosa [26]): -4.1%
Activity [27]: -5.5%
inhibition [28]: Dose-dependent effect
Activity (Pseudomonas aeruginosa [29]): -15.8%
Activity [30]: 40.1%
Activity (Pseudomonas aeruginosa [31]): -5.2%
Activity [32]: -6.4%
Activity (Streptococcus mutans [33]): -12%
inhibition at 44 µg/mL (Streptococcus mutans [34]): 88.8%
Activity (Streptococcus mutans [35]): 10.6%
Activity [36]: -10.2%
Activity (Staphylococcus aureus [37]): -14.9%
Activity (Streptococcus mutans [38]): 6%
Activity (Streptococcus mutans [39]): -46.9%
Activity (Staphylococcus aureus [40]): -5.2%
Activity (Staphylococcus aureus [41]): -3.8%
Activity (Streptococcus mutans [43]): 7.9%
Activity [44]: 1%
Activity (Streptococcus mutans [45]): -0.8%

Activity (Pseudomonas aeruginosa [46]): 84.6%
IC50 [28]: > 87.5 µg/mL
Structure (SMILES): COc1cccc(/C=C2\C(c3cc(Cl)ccc3OC)=C(Br)C(=O)N2CC(C)C)c1
Activity (Streptococcus mutans [1]): 8.3%
Activity [2]: 25.4%
Activity (Pseudomonas aeruginosa [3]): 24.2%
Activity (Streptococcus mutans [4]): 6.1%
Activity [5]: 12.7%
Activity [6]: 4.2%
Activity (Streptococcus mutans [7]): 44.1%
Activity [8]: 0.7%
Activity (Pseudomonas aeruginosa [9]): -6.6%
Activity (Staphylococcus aureus [10]): 49.8%
Activity (Streptococcus mutans [11]): 17%
Activity (Staphylococcus aureus [12]): 20.4%
Activity (Pseudomonas aeruginosa [13]): 18%
Activity [14]: 0.4%
Activity (Staphylococcus aureus [15]): 14%
Activity (Staphylococcus aureus [16]): 34%
Activity (Staphylococcus aureus [17]): 92.3%
inhibition (Pseudomonas aeruginosa [19]): Dose-dependent effect
Activity (Pseudomonas aeruginosa [20]): 0.3%
Activity (Staphylococcus aureus [21]): 45.5%
Activity (Pseudomonas aeruginosa [22]): 19.6%
Activity (Pseudomonas aeruginosa [23]): 9.6%
Activity (Pseudomonas aeruginosa [24]): -5.3%
Activity (Staphylococcus aureus [25]): 9.8%
Activity (Pseudomonas aeruginosa [26]): 8.8%
Activity [27]: 45.3%
inhibition [28]: Dose-dependent effect
Activity (Pseudomonas aeruginosa [29]): 2.8%
Activity [30]: 44.9%
Activity (Pseudomonas aeruginosa [31]): 2.9%
Activity [32]: 1.5%
Activity (Streptococcus mutans [33]): 14.8%
Activity (Streptococcus mutans [35]): -3.9%
Activity [36]: 0.3%
Activity (Staphylococcus aureus [37]): 36.2%
Activity (Streptococcus mutans [38]): -1.7%
Activity (Streptococcus mutans [39]): 76.4%
Activity (Staphylococcus aureus [40]): 39.1%
Activity (Staphylococcus aureus [41]): 11.5%
Activity (Streptococcus mutans [43]): 2.2%
Activity [44]: 4.1%
Activity (Streptococcus mutans [45]): 3.5%
